Calls of active or inactive are those of the source. The calls are words filed in the database; no cut-off is given here.
Columns and labels:
Assay type in all cases: functional, cell-based
[1] = test system: SK-MEL-2; assay: Cytotoxicity against human SK-MEL-2 cells after 48 hrs by SRB assay; conditions: SK-MEL-2, 48 h
[2] = test system: SK-OV-3; assay: Cytotoxicity against human SKOV3 cells after 48 hrs by SRB assay; conditions: SK-OV-3, 48 h
[3] = test system: A549; assay: Cytotoxicity against human A549 cells after 48 hrs by SRB assay; conditions: A549, 48 h
[4] = test system: HCT-15; assay: Cytotoxicity against human HCT15 cells after 48 hrs by SRB assay; conditions: HCT-15, 48 h
[5] = test system: XF498; assay: Cytotoxicity against human XF498 cells after 48 hrs by SRB assay; conditions: XF498, 48 h
[6] = test system: HeLa; assay: Cytotoxicity against human HeLa cells after 48 hrs by SRB assay
[7] = test system: HeLa; assay: Induction of mitochondrial apoptosis in human HeLa cells

Row | SMILES | IC50 [1] [µM] | IC50 [2] [µM] | IC50 [3] [µM] | IC50 [4] [µM] | IC50 [5] [nM] | IC50 [6] [µM] | inhibition [6] | Activity [7]
1 | CC1=C(C)[C@H]2[C@H](Cc3ccccc3)NC(=O)[C@]23OC(=O)/C=C/[C@H](O)CCC[C@@H](C)C/C=C/[C@H]3[C@@H]1O | 5.28 | 4.51 | 5.99 | 5.76 | 12300 |  |  | 
2 | C[C@H]1C/C=C/[C@H]2[C@@H]3O[C@]3(C)[C@@H](C)[C@H]3[C@H](Cc4ccccc4)NC(=O)[C@]32OC(=O)/C=C/CCCC1 | 8.35 | 4.19 | 12.4 | 3.91 |  |  |  | 
3 | C=C1[C@@H](C)[C@H]2[C@H](Cc3ccccc3)NC(=O)[C@]23OC(=O)/C=C/[C@H](O)CCC[C@@H](C)C/C=C/[C@H]3[C@@H]1O [CYTOCHALASIN B] | 0.67 | 0.46 | 2.13 | 1.94 | 2360 | 7.9 | Dose-dependent effect | Active
4 | CC1=C(C)[C@H]2[C@H](Cc3ccccc3)NC(=O)[C@]23C(=O)/C=C/[C@H](O)CCC[C@@H](C)C/C=C/[C@H]3[C@@H]1O [DEOXAPHOMIN B] | 12.4 | 13.9 | 23.2 | 29.3 |  |  |  | 
5 | CC1=C[C@@H]2/C=C/C[C@H](C)CCC[C@@H](O)/C=C/C(=O)[C@]23C(=O)N[C@@H](Cc2ccccc2)[C@@H]3[C@@H]1C [DEOXAPHOMIN C] | 6.66 | 5.48 | 8.58 | 8.43 |  |  |  | 
6 | COc1cccc2c1C(=O)c1c(O)c3c(c(O)c1C2=O)C[C@@](O)(C(=O)CO)C[C@@H]3O[C@H]1C[C@H](N)[C@H](O)[C@H](C)O1 [DOXORUBICIN] | 0.002 | 0.002 |  | 0.035 | 15 |  |  | 

Reference: ChEMBL document CHEMBL2016481, “Cytotoxic cytochalasins from the endozoic fungus Phoma sp. of the giant jellyfish Nemopilema nomurai” (Bioorg Med Chem Lett, 2012)
